# Data from ChEMBL document CHEMBL1201862, “PubChem BioAssay data set” (2004).
# Calls of active or inactive are those of the source.
# Columns and labels:
# [1] = target: T1, Histone-lysine N-methyltransferase NSD2 (Homo sapiens, UniProt O96028); assay type: biochemical
# T1 sequence (O96028 whole entry): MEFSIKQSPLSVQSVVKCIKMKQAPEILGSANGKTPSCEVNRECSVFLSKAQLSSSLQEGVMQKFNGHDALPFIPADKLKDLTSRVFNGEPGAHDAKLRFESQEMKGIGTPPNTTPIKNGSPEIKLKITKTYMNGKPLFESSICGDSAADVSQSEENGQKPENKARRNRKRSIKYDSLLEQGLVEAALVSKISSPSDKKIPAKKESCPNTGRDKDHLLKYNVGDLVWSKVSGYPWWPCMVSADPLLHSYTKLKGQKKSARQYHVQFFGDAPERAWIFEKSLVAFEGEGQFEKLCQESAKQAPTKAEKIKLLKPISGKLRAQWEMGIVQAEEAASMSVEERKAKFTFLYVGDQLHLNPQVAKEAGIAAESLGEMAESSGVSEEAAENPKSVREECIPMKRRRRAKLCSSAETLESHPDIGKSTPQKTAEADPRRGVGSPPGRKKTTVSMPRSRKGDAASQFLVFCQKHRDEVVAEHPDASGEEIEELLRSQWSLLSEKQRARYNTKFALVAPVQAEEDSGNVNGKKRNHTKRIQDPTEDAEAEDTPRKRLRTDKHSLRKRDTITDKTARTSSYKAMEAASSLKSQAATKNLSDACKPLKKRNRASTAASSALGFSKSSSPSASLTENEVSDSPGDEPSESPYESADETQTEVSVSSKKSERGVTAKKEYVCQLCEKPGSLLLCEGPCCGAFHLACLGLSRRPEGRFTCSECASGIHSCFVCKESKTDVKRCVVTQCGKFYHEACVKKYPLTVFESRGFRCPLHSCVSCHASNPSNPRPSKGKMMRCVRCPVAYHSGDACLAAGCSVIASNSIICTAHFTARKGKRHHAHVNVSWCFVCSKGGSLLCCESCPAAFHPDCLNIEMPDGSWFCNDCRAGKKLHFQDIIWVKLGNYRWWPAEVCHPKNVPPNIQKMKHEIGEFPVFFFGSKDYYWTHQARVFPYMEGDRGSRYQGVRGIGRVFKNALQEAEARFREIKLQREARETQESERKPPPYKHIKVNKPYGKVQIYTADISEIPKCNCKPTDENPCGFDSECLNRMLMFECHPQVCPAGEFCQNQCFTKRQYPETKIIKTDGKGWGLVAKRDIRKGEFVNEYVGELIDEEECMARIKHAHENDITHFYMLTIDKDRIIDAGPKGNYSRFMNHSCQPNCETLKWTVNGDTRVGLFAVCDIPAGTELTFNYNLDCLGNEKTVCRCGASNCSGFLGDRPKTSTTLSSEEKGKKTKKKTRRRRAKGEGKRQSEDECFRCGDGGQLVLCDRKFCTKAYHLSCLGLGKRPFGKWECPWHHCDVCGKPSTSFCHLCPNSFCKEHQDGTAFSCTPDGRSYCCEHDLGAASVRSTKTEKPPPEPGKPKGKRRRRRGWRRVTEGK
# [2] = target: T2, Short transient receptor potential channel 4 (Mus musculus, UniProt Q9QUQ5); experiment: calcium entry via TRPC4 opening agents – cell-based, HEK293 TRPC4/mu-opioid, Fluo-4 calcium, dose response (AID 434937); assay type: functional
# T2 sequence (Q9QUQ5 whole entry): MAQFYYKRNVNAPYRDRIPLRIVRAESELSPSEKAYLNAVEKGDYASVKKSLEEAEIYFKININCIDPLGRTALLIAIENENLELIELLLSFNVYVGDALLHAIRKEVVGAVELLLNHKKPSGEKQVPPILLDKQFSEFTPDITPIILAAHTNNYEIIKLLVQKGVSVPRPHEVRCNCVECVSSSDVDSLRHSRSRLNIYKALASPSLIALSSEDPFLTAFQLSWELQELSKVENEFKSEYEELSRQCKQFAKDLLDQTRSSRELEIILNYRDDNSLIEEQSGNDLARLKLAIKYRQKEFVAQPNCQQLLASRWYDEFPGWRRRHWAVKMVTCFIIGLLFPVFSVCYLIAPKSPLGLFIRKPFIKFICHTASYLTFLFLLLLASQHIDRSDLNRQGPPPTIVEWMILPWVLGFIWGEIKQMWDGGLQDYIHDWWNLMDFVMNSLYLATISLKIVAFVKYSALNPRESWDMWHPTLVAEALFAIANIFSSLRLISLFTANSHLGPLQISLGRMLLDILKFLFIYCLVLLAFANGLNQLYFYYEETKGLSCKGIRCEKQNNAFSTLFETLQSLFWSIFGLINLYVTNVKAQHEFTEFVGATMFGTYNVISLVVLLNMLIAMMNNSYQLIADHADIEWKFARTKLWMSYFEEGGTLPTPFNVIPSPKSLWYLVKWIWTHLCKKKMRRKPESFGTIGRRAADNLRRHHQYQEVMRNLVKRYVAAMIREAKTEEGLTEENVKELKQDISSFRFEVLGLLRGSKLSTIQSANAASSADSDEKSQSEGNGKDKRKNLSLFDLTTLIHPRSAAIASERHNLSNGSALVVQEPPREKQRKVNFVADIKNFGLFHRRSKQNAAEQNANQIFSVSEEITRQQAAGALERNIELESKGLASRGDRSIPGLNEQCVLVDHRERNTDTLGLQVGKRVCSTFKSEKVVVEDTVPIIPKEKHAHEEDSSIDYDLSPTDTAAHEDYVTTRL
# [3] = target: Photoreceptor-specific nuclear receptor (Homo sapiens, UniProt Q9Y5X4); assay type: functional, cell-based;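 note: CHO-S cells with Gal4-NCOR and VP16-NR2E3 two-hybrid luciferase reporter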
# [4] = Trypanosoma cruzi growth suppression in host cells – NIH3T3 host cells, beta-gal luminescence, confirmation (AID 2044); assay type: functional, cell-based;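 note: intracellular parasites grown in NIH/3T3 mouse fibroblasts as host cells; luminescent beta-galactosidase reporter signal from transgenic T. cruzi replicating inside host cells; inhibitors lower the luminescence signal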
# [5] = NIH3T3 cell viability loss – ATP luminescence, mouse fibroblasts, counter-screen, dose response (AID 2010); assay type: functional, cell-based;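 note: cells exposed to compound for about 90 hours before reading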
# [6] = NIH-3T3 fibroblast cytotoxicity, dose response, cytotoxicity control, cell-based, fluorescence, Alamar Blue, secondary assay (AID 2327); assay type: functional;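 note: NIH-3T3 mouse fibroblasts cultured with fluconazole at 8 µg/mL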
# [7] = fluconazole-exposed Candida albicans growth modulators – fluorescence, retest, confirmation (AID 2467); assay type: functional, cell-based
# [8] = test system: HEK293; experiment: EBV LMP1 TES2 canonical NF-kB signalling blockers – cell-based, HEK293, luciferase, cherry-pick, dose response (AID 588343); assay type: functional; details: Homo sapiens
# [9] = HEK-293T viability loss after treatment – luminescence, T-cell screen hits, cytotoxicity control for TCR NF-kB inhibitor project, dose response (AID 489026); assay type: functional, cell-based;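 note: cells exposed to compound about 14 hours before the viability readout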
# [10] = microbe, parasite or virus in culture; assay type: functional; details: Mycobacterium tuberculosis
# [11] = target: T3, High affinity choline transporter 1 (Homo sapiens, UniProt Q9GZV3); experiment: human choline transporter blockers, potency – cell-based, 5-point CRC, membrane potential dye, dose response (AID 504840); assay type: functional
# T3 sequence (Q9GZV3 whole entry): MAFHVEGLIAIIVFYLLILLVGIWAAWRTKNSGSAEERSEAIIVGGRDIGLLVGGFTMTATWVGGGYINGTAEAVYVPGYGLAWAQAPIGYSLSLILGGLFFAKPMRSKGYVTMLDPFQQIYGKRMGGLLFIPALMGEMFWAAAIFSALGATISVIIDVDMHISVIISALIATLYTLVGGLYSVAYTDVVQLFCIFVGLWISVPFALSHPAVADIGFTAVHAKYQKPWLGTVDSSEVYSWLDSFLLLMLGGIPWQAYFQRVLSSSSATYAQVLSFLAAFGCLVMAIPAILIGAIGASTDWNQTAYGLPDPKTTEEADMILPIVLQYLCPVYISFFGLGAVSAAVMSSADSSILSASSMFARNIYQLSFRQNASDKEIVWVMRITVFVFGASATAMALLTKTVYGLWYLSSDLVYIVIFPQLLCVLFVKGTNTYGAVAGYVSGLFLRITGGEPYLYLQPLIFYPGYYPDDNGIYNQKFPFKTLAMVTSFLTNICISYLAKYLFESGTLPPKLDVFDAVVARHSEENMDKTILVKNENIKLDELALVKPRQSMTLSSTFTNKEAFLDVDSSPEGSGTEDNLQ
# [12] = test system: Vero; experiment: cells; assay type: functional; details: Chlorocebus sabaeus
# [13] = target: Heat shock protein HSP 90-alpha (Homo sapiens, UniProt P07900); assay type: functional, organism-based
# [14] = Luminescence Cell-Based Dose Retest to Confirm Inhibitors of Cancer Stem Cells. [Related pubchem assays (depositor defined):AID2717, AID2721]; assay type: functional; details: Homo sapiens
# [15] = target: T4, Fatty acid synthase (Homo sapiens, UniProt P49327); experiment: inhibition of human FAS-TE enzyme activity – biochemical, endpoint fluorescence intensity, uHTS hits, dose response (AID 624327); assay type: functional;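 note: fluorescence from hydrolysis of an O-methyl fluorescein acyl ester substrate by the enzyme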
# [16] = target: T4, Fatty acid synthase; experiment: inhibition of human FAS-TE enzyme activity – biochemical, kinetic fluorescence intensity, dose response (AID 624326); assay type: functional;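 note: rate of fluorescence rise from hydrolysis of a fluorogenic O-methyl fluorescein ester substrate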
# [17] = luciferase reporter signal suppression in cells – H4 neuroglioma cells, luminescence, dose response (AID 1990); assay type: functional, cell-based
# [18] = test system: Streptococcus; experiment: GAS UMAA2166 growth inhibition – luminescence, BacTiterGlo, counter-screen for streptokinase expression inhibitor project, dose response (AID 1915); assay type: functional, organism-based;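 note: potency for reduction of bacterial viability or growth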
# [19] = test system: Streptococcus sp. 'group A'; experiment: Streptococcus pyogenes SK(-)GAS viability under kanamycin – luminescence, BacTiterGlo, confirmation, counter-screen for streptokinase expression inhibitor project, dose response (AID 1900); assay type: functional, organism-based
# [20] = alpha-synuclein stem-loop luciferase translation blockers – H4 neuroglioma cells, luminescence, confirmation (AID 1988); assay type: functional, cell-based
# [21] = Luminescence Cell-Based Dose Response HTS to Identify Inhibitors of 5'UTR Stem-Loop Driven Prion Protein mRNA Translation in H4 Neuroglioblastoma Cells. [Related pubchem assays: 1827 (Project Summary), 1813 (Primary HTS)]; assay type: functional
# [22] = cells; assay type: functional
# [23] = target: T5, DNA repair protein RAD52 homolog (Homo sapiens, UniProt P43351); assay type: functional, biochemical
# T5 sequence (P43351 whole entry): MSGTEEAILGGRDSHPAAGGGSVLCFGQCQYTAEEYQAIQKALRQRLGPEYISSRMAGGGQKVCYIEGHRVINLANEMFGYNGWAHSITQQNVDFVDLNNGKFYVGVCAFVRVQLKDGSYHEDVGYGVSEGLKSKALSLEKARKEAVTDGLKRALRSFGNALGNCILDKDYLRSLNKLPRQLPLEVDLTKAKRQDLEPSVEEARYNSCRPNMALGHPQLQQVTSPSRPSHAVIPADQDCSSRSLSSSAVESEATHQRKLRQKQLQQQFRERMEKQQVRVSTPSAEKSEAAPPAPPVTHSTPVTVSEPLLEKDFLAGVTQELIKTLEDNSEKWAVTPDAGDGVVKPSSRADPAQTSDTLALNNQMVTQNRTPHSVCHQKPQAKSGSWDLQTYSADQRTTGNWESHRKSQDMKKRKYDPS
# [24] = viability of uninfected HEp-2 cells – cell-based, HTS, cytotoxicity control for RSV inhibitor project, dose response (AID 2410); assay type: functional; details: human respiratory syncytial virus
# Sequence of Photoreceptor-specific nuclear receptor (Q9Y5X4 whole entry, the tested form may be a part): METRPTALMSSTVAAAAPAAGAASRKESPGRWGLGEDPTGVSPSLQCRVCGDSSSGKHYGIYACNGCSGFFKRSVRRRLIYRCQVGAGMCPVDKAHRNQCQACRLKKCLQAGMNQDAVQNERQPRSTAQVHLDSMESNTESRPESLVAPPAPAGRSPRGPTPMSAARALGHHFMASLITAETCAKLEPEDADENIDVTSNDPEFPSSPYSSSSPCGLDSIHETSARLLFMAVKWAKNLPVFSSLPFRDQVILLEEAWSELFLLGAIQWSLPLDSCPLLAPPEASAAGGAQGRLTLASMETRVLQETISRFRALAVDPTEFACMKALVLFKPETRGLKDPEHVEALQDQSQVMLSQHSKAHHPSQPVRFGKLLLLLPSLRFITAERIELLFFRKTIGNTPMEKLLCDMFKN
# T4 sequence (P49327 whole entry): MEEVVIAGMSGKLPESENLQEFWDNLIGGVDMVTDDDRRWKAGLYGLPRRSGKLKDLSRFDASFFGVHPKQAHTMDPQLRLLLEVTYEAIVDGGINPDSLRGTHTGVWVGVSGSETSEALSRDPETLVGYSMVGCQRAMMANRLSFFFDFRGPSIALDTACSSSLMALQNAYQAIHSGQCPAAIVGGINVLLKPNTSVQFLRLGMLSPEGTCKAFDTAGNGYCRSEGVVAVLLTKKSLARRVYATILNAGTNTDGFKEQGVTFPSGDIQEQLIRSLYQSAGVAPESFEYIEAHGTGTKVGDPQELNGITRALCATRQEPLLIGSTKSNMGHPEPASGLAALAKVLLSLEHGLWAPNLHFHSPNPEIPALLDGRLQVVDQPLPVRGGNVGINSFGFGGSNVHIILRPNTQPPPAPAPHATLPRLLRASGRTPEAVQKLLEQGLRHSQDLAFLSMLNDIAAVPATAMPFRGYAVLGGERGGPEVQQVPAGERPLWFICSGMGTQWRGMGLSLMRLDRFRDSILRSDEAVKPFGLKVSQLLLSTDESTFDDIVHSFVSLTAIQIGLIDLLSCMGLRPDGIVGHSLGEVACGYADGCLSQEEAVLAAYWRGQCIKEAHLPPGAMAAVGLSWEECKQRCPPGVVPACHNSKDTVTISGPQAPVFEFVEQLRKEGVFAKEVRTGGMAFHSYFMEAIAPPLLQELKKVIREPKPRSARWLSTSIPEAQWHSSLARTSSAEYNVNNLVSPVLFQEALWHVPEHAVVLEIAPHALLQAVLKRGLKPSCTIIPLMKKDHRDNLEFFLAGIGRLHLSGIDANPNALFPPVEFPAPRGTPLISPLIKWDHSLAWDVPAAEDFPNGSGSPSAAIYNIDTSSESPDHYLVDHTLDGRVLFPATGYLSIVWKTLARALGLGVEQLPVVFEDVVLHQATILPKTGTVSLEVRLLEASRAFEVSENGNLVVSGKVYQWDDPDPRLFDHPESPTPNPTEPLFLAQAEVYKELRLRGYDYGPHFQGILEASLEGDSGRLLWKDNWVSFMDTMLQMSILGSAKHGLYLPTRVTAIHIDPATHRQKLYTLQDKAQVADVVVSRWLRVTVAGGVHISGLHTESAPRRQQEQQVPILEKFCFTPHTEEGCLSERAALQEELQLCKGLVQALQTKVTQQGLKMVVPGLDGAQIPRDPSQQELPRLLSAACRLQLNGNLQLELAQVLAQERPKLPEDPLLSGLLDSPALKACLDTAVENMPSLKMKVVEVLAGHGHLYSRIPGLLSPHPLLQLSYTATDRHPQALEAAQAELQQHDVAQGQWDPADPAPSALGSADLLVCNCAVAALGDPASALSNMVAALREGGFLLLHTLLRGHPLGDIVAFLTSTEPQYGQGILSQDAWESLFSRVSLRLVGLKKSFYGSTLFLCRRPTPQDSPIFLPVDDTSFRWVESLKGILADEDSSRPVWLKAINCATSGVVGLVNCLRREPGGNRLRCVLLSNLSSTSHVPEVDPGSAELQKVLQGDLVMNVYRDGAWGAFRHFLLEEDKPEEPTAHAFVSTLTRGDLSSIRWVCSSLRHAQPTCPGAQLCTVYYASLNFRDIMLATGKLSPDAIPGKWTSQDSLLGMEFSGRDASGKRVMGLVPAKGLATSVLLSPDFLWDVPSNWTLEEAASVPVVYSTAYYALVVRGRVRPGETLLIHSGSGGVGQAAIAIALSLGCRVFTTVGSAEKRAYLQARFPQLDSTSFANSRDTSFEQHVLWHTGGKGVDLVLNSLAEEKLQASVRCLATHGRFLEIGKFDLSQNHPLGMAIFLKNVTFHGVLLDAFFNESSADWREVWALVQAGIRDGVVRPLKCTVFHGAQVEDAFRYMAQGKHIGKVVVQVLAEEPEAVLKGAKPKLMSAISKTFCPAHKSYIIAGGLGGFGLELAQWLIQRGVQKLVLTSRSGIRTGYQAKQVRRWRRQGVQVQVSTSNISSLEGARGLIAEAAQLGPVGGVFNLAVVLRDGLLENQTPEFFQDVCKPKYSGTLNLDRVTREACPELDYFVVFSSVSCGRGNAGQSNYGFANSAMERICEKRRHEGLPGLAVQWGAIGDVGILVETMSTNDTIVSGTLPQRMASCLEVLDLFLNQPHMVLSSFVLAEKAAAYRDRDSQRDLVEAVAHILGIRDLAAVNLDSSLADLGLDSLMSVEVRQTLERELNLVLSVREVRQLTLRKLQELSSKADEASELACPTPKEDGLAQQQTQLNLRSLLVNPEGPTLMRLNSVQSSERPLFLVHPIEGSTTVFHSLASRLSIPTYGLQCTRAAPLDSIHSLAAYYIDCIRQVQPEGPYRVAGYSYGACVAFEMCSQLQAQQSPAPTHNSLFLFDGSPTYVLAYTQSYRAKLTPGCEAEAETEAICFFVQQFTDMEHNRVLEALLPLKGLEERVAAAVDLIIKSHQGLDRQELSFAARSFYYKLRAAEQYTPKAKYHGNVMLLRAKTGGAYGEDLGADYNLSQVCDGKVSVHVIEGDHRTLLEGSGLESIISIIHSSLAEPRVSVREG
smiles,measurement,setting,value
CCCCN(CC)CCNC(=O)c1ccc2c(Cl)c3c(nc2c1)CCC3,AC50,[1],> 20 µM (inactive)
same,EC50,[2],0.024 µM (active)
CC(C)(C)C(=O)Nc1ccc(Sc2ccc([N+](=O)[O-])cc2)cc1,IC50,[3],3.51 µM (active)
CN=C(S)N=CNOCc1ccc(Cl)cc1Cl,EC50,[4],0.368 µM (active)
same,EC50,[5],7.02 µM (active)
same,EC50,[6],7.07 µM (inconclusive)
same,EC50,[7],< 0.03 µM (active)
same,IC50,[3],3.21 µM (active)
CCC(=O)N1CCCc2cc(S(=O)(=O)N3CCN(c4ccccn4)CC3)ccc21,IC50,[3],2.3 µM (active)
CC1=C(C(=O)OCc2ccc3c(c2)OCO3)C(c2ccc(Cl)cc2)NC(=O)N1 (centres undefined),AC50,[8],0.299 µM (active)
same,IC50,[9],> 80 µM (inactive)
Cc1c(Cl)ccc2sc(N3CCN(C(=O)C4=COCCO4)CC3)nc12,CC50,[10],38.1 µM (active)
same,IC50,[3],4.06 µM (active)
CCC1(C)Cc2c(sc3[nH]c(=S)n(Cc4ccccc4)c(=O)c23)CO1 (centres undefined),IC50,[3],4.95 µM (active)
O=C1CC(O)(C(F)(F)F)Oc2c1ccc1ccccc21 (centres undefined),IC50,[11],12.9 µM (active)
same,EC50,[2],9.44 µM (active)
CCN1C(=O)/C(=C\C(=O)c2cccs2)c2cc(Br)ccc21,CC50,[12],> 25 µM (active)
same,AC50,[13],3.66 µM (active)
COc1ccc(-c2csc3nc(-c4ccccc4F)oc(=O)c23)cc1OC,AC50,[14],5.19 µM (active)
same,IC50,[15],9.02 µM (active)
same,IC50,[16],6.25 µM (active)
COc1ccc(C(=O)NNC(=S)NC(=O)c2ccccc2)cc1,EC50,[17],> 120 µM (not active)
same,EC50,[18],3.03 µM (active)
same,EC50,[19],1.18 µM (active)
same,EC50,[6],> 150 µM (inactive)
same,EC50,[7],2.08 µM (active)
same,EC50,[20],15.5 µM (active)
same,EC50,[21],11.6 µM (active)
same,EC50,[2],5.96 µM (active)
COc1ccc(/C=C/c2nc3ccccc3c(=O)o2)cc1,EC50,[17],8.15 µM (inconclusive)
same,AC50,[8],0.507 µM (active)
same,EC50,[20],7.8 µM (inconclusive)
same,IC50,[22],21.5 µM (active)
same,EC50,[21],3.01 µM (active)
CCOc1cc(/C=C/C(=O)c2ccc(C)cc2)ccc1OCC(=O)N(C)C,CC50,[12],> 25 µM (active)
COc1cc2cc(-c3ccc(OC)c(OC)c3C)nc(N)c2cc1OC,EC50,[17],0.597 µM (active)
same,AC50,[23],12.4 µM (active)
same,CC50,[12],1.67 µM (active)
same,EC50,[20],0.344 µM (active)
same,EC50,[21],0.48 µM (active)
COc1ccc(NC(=O)c2cc3ccccc3oc2=O)cc1,AC50,[8],0.673 µM (active)
O=C(Nc1ccc(CN2CCOCC2)cc1)c1ccc(-c2cc(Cl)ccc2Cl)o1,CC50,[12],21.1 µM (active)
same,CC50,[24],4.45 µM (active)
same,CC50,[10],29.3 µM (active)
